Our source for the Kd and EC50 values is patent US20260250325A1, “Antiviral Polypeptide Membrane Fusion Inhibitor, and Preparation Method and Application Thereof” (priority 2025, published 2026).

For one assay, the target named is T1, hPIV-N51 (139-189) (Human parainfluenza 3 virus, UniProt P06828).
T1 construct: hPIV-N51 (139-189)
The experiment in a line: SPR affinity to hPIV-N51 coupled on CM5 chip. The class given is binding. As for the experimental part: hMPV and hPIV were two viruses having a typical Class I fusion protein-F protein. An F protein precursor F0 was cracked into F1 and F2 subunits. […] When the compound flowed through a chip surface, changes in an SPR signal were monitored in real time, binding and dissociation processes were recorded, and a binding rate constant (ka) and a dissociation rate constant (kd) were further obtained through kinetic analysis, thereby calculating an equilibrium dissociation constant (KD=kd/ka).
A CM5 chip with a catalog number 29149603, an amino coupling reagent kit with a catalog number BR100050, HBS-EP+Buffer (10×), sodium acetate (pH 4.0), and a 10 mM glycine-HCl buffer (pH 2.0) were all purchased from GE Health.
CM5 chip coupling: Channels 2 and 4 of the CM5 chip were activated for 7 min by using a freshly-prepared mixture of 50 mM Hydroxy succinimide (NHS) and 200 mM 1-(3-Dimethylaminopropyl)-3-ethylcarbodiimide (EDC) according to 1:1; and then, hMPV-N46 or hPIV-N51 was diluted and dissolved with sodium acetate with 4.0 pH to a concentration of 30 μM, with a flow rate of 10 μl/min and time of 600 s. An experimental buffer was HBS-EP+buffer (1×). Finally, the chip was blocked with 1 M ethanolamine. The instrument was set to a temperature of 25° C.
Affinity detection: the buffer used in the experiment was HBS-EP+buffer (1×), and a multi-cycle dynamic mode was used. Channels 1 and 3 of the chip served as blank reference channels; polypeptides to be detected sequentially flowed through Channels 2 and 4 at concentrations of 0 μM, 0.04 µM, 0.12 µM, 0.37 μM, 1.11 µM, 3.33 µM, 10 µM, and 30 μM; the flow rate was 30 μl/min, binding was performed for 180 s, and dissociation was performed for 120 s. Finally, the chip was regenerated by injecting 10 mM glycine (pH 2.0). The instrument was set to a temperature of 25° C.

Another assay deals with hMPV A2. The class given is cell-based. Particulars: Vero cells, plaque reduction. How it is done:
(§1) African green monkey kidney cells (Vero) were sourced from the ATCC, with catalog number CCL-81. The cells were cultured in a DMEM culture solution in which 10% fetal bovine serum, 1% non-essential amino acids, 1% sodium pyruvate, 1% L-glutamine, 100 U/ml penicillin, and 100 μg/ml streptomycin were added.
(§2) A hMPV plaque experiment culture medium consisted of an Opti-MEM culture solution added with 1% non-essential amino acids, 100 U/mL penicillin, and 100 μg/mL streptomycin.
(§3) hMPV virus strains A2 and B1 were constructed by WuXi App Tec.
(§4) This study used a plaque reduction experiment to detect the in-vitro activity of a test sample against the hMPV virus strains A2 and B1.
(§5) The test sample and an experimental system were tested at 8 concentrations in duplicated wells. The Vero cells were digested with trypsin and then diluted to a concentration of 400,000 cells per milliliter by using a cell culture solution containing 2% serum. The diluted cells were added to a 96-well cell test board, with 100 μL per well, corresponding to 40000 cells per well. The cells were cultured overnight in a 37° C. incubator with 5% CO2.
(§6) On the second day, the test sample was diluted in an experimental culture medium at a fold ratio. The sample diluted at a fold ratio and an equal volume of virus (approximately 200 PFU per well) were well mixed and incubated at 33° C. in 5% CO2 for 1 h. Then, the culture solution in the 96-well cell test board was discarded, the sample virus mixed solution (100 μL) was added to the 96-well cell culture plate, and incubated at 37° C. in 5% CO2 for 2 hours. After 2 h, the sample virus mixed solution was discarded, 200 μL of an experiment culture medium containing the test sample with a corresponding concentration was added, and the culture solution contained 0.8% CMC and 5 μg/ml trypsin. A final concentration of DMSO in the culture solution was 0.5%. A system control antibody was directly added to the experiment culture solution containing 0.8% CMC and 5 μg/ml trypsin. A cell control (cells, without compound treatment or viral infection) and a viral control (cell infection virus, without compound treatment) were set. The cells were cultured for 1 day in the 33° C. incubator with 5% CO2.
(§7) The cells were fixed with 4% paraformaldehyde, and then permeabilization was performed with 0.5% Triton X-100. After the plate was washed with DPBS, a hMPV specific antibody (1:2000 dilution) was added and incubated at 37° C. for 1.5 h. Then, a secondary antibody (1:1000 dilution) was added and incubated at 37° C. for 1 hour. The secondary antibody was discarded, a TrueBlue solution was added, dyeing was performed for approximately 10 minutes; and the plate was washed with running water and then air-dried, and the number of spots in each well was counted by using a microplate imaging counter.
(§8) Raw data was used for analyzing the antiviral activity of the test samples. A calculation formula was shown as follows.
(§9) % inhibition rate=100−(sample value-cell control average value)/(virus control average value-cell control average value)×100
(§10) Non-linear fitting analysis was performed on the inhibition rate of the sample by using GraphPad Prism (version 10), so as to calculate an EC50 value for the sample. A fitting formula was log (inhibitor) vs. response-Variable slope (four parameters).

The next assay deals with hMPV B1. The class given is cell-based. Particulars: Vero cells, plaque reduction. As for the experimental part: as §1, §2, §3, §4, §5, §6, §7, §8, §9, §10

pEC50, pKd: −log10 of the molar value. Where a SMILES comes first, the peptide text is derived from it. The star is where a group is joined. Succinyl(4-O-cholesteryl) = CC(C)CCC[C@@H](C)[C@H]1CC[C@H]2[C@@H]3CC=C4C[C@@H](OC(=O)CCC(=O)*)CC[C@]4(C)[C@H]3CC[C@]12C

T1 sequence (P06828 139-189): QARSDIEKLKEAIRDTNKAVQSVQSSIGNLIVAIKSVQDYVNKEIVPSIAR

As a reminder, the pKd is the negative decadic logarithm of the Kd, by convention in mol/L. A high value points to a low Kd. As usually defined, the pEC50 is the negative decadic logarithm of the EC50, by convention in mol/L. Lower therefore signals a large EC50. Take `CC[C@H](C)[C@H](NC(=O)[C@H](CCCCN)NC(=O)[C@H](CCCCN)NC(=O)[C@H](CC(C)C)NC(=O)[C@H](CO)NC(=O)[C@H](CCC(=O)O)NC(=O)[C@H](CCC(=O)O)NC(=O)[C@@H](NC(=O)[C@H](CCCCN)NC(=O)[C@H](CCCCN)NC(=O)[C@H](CC(N)=O)NC(=O)[C@@H](NC(=O)[C@H](CCC(=O)O)NC(=O)[C@H](CCC(=O)O)NC(=O)[C@@H](NC(=O)[C@H](CCCCN)NC(=O)[C@H](CCCCN)NC(=O)[C@H](CC(=O)O)NC(=O)[C@H](Cc1ccccc1)NC(=O)[C@H](CCC(=O)O)NC(=O)[C@H](CC(=O)O)NC(=O)[C@H](CO)NC(C)=O)[C@@H](C)CC)C(C)C)[C@@H](C)CC)C(=O)N[C@@H](CCC(=O)O)C(=O)N[C@@H](CCC(=O)O)C(=O)N[C@@H](CO)C(=O)N[C@@H](CC(=O)O)C(=O)N[C@@H](CCCCN)C(=O)N[C@@H](CCCCN)C(=O)N[C@@H](CC(C)C)C(=O)NCC(=O)N[C@@H](CO)C(=O)NCC(=O)N[C@@H](CO)C(=O)NCC(=O)N[C@@H](CCCCNC(=O)CCC(=O)O[C@H]1CC[C@@]2(C)C(=CC[C@H]3[C@@H]4CC[C@H]([C@H](C)CCCC(C)C)[C@@]4(C)CC[C@@H]32)C1)C(N)=O` [Compound 20] (Ac-SDEFDKKIEEVNKKIEESLKKIEESDKKLGSGSGK(Succinyl(4-O-cholesteryl))-NH2): at hPIV-N51 (139-189), the pKd was 5.17. The pEC50 in the assay on hMPV A2 is 8.13; with hMPV B1 it was 8.37.
For `CC[C@H](C)[C@H](NC(=O)[C@H](CCCCN)NC(=O)[C@H](CCC(=O)O)NC(=O)[C@H](CC(C)C)NC(=O)[C@H](CO)NC(=O)[C@H](CCC(N)=O)NC(=O)[C@H](CC(N)=O)NC(=O)[C@@H](NC(=O)[C@H](CCCCN)NC(=O)[C@H](CCC(=O)O)NC(=O)[C@H](CC(N)=O)NC(=O)[C@@H](NC(=O)[C@H](CCC(N)=O)NC(=O)[C@H](CO)NC(=O)[C@H](C)NC(=O)[C@H](CC(=O)O)NC(=O)[C@H](Cc1ccccc1)NC(=O)[C@@H](NC(=O)[C@H](CC(C)C)NC(=O)[C@H](CCC(=O)O)NC(=O)[C@H](CC(=O)O)NC(=O)[C@H](Cc1ccc(O)cc1)NC(C)=O)C(C)C)C(C)C)[C@@H](C)CC)C(=O)N[C@@H](CCCNC(=N)N)C(=O)N[C@@H](CCCCN)C(=O)N[C@@H](CO)C(=O)N[C@@H](CC(=O)O)C(=O)N[C@@H](CCC(=O)O)C(=O)N[C@@H](CC(C)C)C(=O)N[C@@H](CC(C)C)C(=O)N[C@@H](Cc1c[nH]cn1)C(=O)N[C@@H](CC(N)=O)C(=O)N[C@H](C(=O)NCC(=O)N[C@@H](CO)C(=O)NCC(=O)N[C@@H](CO)C(=O)NCC(=O)N[C@@H](CCCCNC(=O)CCC(=O)O[C@H]1CC[C@@]2(C)C(=CC[C@H]3[C@@H]4CC[C@H]([C@H](C)CCCC(C)C)[C@@]4(C)CC[C@@H]32)C1)C(N)=O)C(C)C` [Compound 25] (Ac-YDELVFDASQVNEKINQSLEKIRKSDELLHNVGSGSGK(Succinyl(4-O-cholesteryl))-NH2), in that order: 4.13, 7.06 and 7.42.
The compound `CC[C@H](C)[C@H](NC(=O)[C@H](CO)NC(=O)[C@H](C)NC(=O)[C@H](CC(=O)O)NC(=O)[C@H](Cc1ccccc1)NC(=O)[C@H](CCC(=O)O)NC(=O)[C@H](CC(=O)O)NC(C)=O)C(=O)N[C@@H](CO)C(=O)N[C@@H](CCC(N)=O)C(=O)N[C@H](C(=O)N[C@@H](CC(N)=O)C(=O)N[C@@H](CCC(=O)O)C(=O)N[C@@H](CCCCN)C(=O)N[C@H](C(=O)N[C@@H](CC(N)=O)C(=O)N[C@@H](CCC(N)=O)C(=O)N[C@@H](CO)C(=O)N[C@@H](CC(C)C)C(=O)N[C@@H](CCC(=O)O)C(=O)N[C@@H](CCC(=O)O)C(=O)N[C@H](C(=O)N[C@@H](CCCNC(=N)N)C(=O)N[C@@H](CCCCN)C(=O)N[C@@H](CO)C(=O)N[C@@H](CC(=O)O)C(=O)N[C@@H](CCC(=O)O)C(=O)N[C@@H](CC(C)C)C(=O)N[C@@H](CC(C)C)C(=O)N[C@@H](Cc1c[nH]cn1)C(=O)N[C@@H](CC(N)=O)C(=O)N[C@@H](CCC(=O)O)C(=O)N[C@@H](C)C(=O)N[C@@H](C)C(=O)N[C@@H](C)C(=O)N[C@@H](CCCCN)C(=O)N[C@@H](CCCCNC(=O)CCC(=O)O[C@H]1CC[C@@]2(C)C(=CC[C@H]3[C@@H]4CC[C@H]([C@H](C)CCCC(C)C)[C@@]4(C)CC[C@@H]32)C1)C(N)=O)[C@@H](C)CC)[C@@H](C)CC)C(C)C` [Compound 28] (Ac-DEFDASISQVNEKINQSLEEIRKSDELLHNEAAAKK(Succinyl(4-O-cholesteryl))-NH2) gave a negative logarithm of the Kd (pKd) on hPIV-N51 (139-189) of 3.01. Also, the pEC50 was 7.23 in the assay with hMPV A2 and 7.86 with hMPV B1.
In turn, `CC[C@H](C)[C@H](NC(=O)[C@H](CCCCN)NC(=O)[C@H](CCC(=O)O)NC(=O)[C@H](CC(C)C)NC(=O)[C@H](CO)NC(=O)[C@H](CCC(N)=O)NC(=O)[C@H](CC(N)=O)NC(=O)[C@@H](NC(=O)[C@H](CCCCN)NC(=O)[C@H](CCC(=O)O)NC(=O)[C@H](CC(N)=O)NC(=O)[C@@H](NC(=O)[C@H](CCC(N)=O)NC(=O)[C@H](CO)NC(=O)[C@H](C)NC(=O)[C@H](CC(=O)O)NC(=O)[C@H](Cc1ccccc1)NC(=O)[C@@H](NC(=O)[C@H](CC(C)C)NC(=O)[C@H](CCC(=O)O)NC(=O)[C@H](CC(=O)O)NC(=O)[C@H](Cc1ccc(O)cc1)NC(C)=O)C(C)C)C(C)C)[C@@H](C)CC)C(=O)N[C@@H](CCCNC(=N)N)C(=O)N[C@@H](CCCCN)C(=O)N[C@@H](CO)C(=O)N[C@@H](CC(=O)O)C(=O)N[C@@H](CCC(=O)O)C(=O)N[C@@H](CC(C)C)C(=O)N[C@@H](CC(C)C)C(=O)N[C@@H](Cc1c[nH]cn1)C(=O)N[C@@H](CC(N)=O)C(=O)N[C@H](C(=O)N[C@@H](CCC(=O)O)C(=O)N[C@@H](C)C(=O)N[C@@H](C)C(=O)N[C@@H](C)C(=O)N[C@@H](CCCCN)C(=O)N[C@@H](CCCCNC(=O)CCC(=O)O[C@H]1CC[C@@]2(C)C(=CC[C@H]3[C@@H]4CC[C@H]([C@H](C)CCCC(C)C)[C@@]4(C)CC[C@@H]32)C1)C(N)=O)C(C)C` [Compound 30] (Ac-YDELVFDASQVNEKINQSLEKIRKSDELLHNVEAAAKK(Succinyl(4-O-cholesteryl))-NH2) had a pKd at hPIV-N51 (139-189) of 5.99. The figures for the pEC50 in the assay with hMPV A2 and with hMPV B1 were 7.02 and 7.29, respectively.
